ChEMBL document CHEMBL5608182, “Synthesis and evaluation of neuroactive steroids with novel pharmacophore at C-21 let identify a compound with advantageous PK profile and higher EC50 and Emax as PAM on GABAA receptor” (Eur J Med Chem, 2024)

How the values were obtained:
[1] = molecular target: GABA-A receptor; alpha-1/beta-2/gamma-2 (Homo sapiens) (UniProt P14867+P47870+P18507); assay: (§1) Positive allosteric modulation of synaptic alpha1beta2gamma2 GABA-A receptor (unknown origin) transfected in LTK cells assessed as potentiation of GABA-induced peak current amplitude by measuring maximal efficacy at 0.01 to 10 uM at -80 mV holding potential preincubated for 30 secs followed by GABA stimulation for 2 secs by Q-patch assay relative to control; type: cell-based; settings: filed as positive allosteric modulator, dose 0.01-10 µM, time 32.0 sec
[2] = molecular target: Gamma-aminobutyric acid receptor subunit alpha-4/beta3/delta (Homo sapiens) (UniProt P28472+P48169+O14764); assay: as §1, with “extrasynaptic alpha4beta3delta” for “synaptic alpha1beta2gamma2”, “CHO” for “LTK”, “manual patch” for “Q-patch”; type: cell-based; settings: filed as positive allosteric modulator, dose 0.01-10 µM, time 32.0 sec
[3] = molecular target: Gamma-aminobutyric acid receptor subunit alpha-4/beta3/delta (Homo sapiens, UniProt O14764+P28472+P48169); assay: Positive allosteric modulation of extrasynaptic alpha4beta3delta GABA-A receptor (unknown origin) transfected in CHO cells assessed as potentiation of GABA-induced peak current amplitude at -80 mV holding potential preincubated for 30 secs followed by GABA stimulation for 2 secs by manual patch assay; type: cell-based
Chain of Gamma-aminobutyric acid receptor subunit alpha-4/beta3/delta (P28472 whole entry): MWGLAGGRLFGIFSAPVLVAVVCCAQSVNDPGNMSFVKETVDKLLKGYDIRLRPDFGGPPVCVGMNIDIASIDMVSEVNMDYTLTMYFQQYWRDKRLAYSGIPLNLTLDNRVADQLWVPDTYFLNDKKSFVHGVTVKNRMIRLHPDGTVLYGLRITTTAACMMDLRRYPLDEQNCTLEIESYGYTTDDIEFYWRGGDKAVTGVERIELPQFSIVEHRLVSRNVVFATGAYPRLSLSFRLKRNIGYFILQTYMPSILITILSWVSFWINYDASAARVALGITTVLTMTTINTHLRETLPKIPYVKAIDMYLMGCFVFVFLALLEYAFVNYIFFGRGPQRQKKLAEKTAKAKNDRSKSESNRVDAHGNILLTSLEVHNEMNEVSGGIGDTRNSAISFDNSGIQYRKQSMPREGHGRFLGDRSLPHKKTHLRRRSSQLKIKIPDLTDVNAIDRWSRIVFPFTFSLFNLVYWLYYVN
Chain of Gamma-aminobutyric acid receptor subunit alpha-4/beta3/delta (P48169 whole entry): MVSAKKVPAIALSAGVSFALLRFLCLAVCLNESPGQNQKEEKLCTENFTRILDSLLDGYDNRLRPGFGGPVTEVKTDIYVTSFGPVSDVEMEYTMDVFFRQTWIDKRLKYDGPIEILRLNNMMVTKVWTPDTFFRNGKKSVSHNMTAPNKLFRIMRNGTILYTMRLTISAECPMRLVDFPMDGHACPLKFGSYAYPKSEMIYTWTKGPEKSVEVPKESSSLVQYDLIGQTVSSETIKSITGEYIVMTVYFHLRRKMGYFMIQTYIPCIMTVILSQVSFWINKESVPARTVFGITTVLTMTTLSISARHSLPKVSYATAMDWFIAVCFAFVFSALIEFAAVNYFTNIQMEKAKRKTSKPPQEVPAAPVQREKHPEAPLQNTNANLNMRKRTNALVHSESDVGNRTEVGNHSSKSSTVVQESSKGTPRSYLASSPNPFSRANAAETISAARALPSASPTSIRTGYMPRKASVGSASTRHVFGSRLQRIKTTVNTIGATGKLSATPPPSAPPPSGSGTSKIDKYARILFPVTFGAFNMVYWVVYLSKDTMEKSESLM
Chain of Gamma-aminobutyric acid receptor subunit alpha-4/beta3/delta (O14764 whole entry): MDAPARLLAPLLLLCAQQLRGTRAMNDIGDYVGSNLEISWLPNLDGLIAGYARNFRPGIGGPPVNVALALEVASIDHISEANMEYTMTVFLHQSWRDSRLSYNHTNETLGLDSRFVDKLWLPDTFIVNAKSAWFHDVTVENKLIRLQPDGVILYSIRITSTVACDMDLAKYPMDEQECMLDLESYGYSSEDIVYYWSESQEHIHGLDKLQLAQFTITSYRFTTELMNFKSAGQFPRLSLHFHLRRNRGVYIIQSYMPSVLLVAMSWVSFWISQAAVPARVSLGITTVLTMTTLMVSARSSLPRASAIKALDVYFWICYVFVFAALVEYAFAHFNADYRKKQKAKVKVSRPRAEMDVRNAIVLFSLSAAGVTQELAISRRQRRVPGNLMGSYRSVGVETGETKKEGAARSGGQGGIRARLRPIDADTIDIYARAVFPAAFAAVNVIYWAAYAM

[4] = molecular target: T1, GABA-A receptor; alpha-1/beta-2/gamma-2 (Homo sapiens, UniProt P14867+P18507+P47870); assay: Positive allosteric modulation of synaptic alpha1beta2gamma2 GABA-A receptor (unknown origin) transfected in LTK cells assessed as potentiation of GABA-induced peak current amplitude at -80 mV holding potential preincubated for 30 secs followed by GABA stimulation for 2 secs by Q-patch assay; type: cell-based
T1 sequence (P14867 whole entry): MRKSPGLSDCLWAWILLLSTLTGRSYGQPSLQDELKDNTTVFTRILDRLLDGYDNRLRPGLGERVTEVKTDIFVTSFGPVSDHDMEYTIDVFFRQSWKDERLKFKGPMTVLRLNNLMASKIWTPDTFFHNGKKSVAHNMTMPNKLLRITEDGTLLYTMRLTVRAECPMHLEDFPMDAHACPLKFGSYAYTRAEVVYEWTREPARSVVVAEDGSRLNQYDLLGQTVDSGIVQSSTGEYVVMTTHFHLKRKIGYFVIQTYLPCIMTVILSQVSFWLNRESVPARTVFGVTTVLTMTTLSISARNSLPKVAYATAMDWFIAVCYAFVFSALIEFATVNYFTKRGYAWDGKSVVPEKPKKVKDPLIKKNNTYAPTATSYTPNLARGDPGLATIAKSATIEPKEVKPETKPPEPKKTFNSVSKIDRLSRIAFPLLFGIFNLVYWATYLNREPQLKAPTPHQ
T1 sequence (P47870 whole entry): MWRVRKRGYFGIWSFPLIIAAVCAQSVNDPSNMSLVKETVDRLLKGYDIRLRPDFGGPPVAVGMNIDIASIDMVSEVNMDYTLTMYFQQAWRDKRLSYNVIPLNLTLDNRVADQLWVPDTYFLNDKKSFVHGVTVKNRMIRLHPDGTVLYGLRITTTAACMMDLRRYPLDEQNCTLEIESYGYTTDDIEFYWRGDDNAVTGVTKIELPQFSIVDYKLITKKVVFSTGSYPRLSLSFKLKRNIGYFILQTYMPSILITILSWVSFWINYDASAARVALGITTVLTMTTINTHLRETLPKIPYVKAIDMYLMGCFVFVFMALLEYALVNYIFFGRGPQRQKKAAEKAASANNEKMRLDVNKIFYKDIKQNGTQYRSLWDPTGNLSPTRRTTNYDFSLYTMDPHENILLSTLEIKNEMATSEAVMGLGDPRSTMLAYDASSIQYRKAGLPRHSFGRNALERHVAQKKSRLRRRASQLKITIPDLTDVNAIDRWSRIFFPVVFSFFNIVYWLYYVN
T1 sequence (P18507 whole entry): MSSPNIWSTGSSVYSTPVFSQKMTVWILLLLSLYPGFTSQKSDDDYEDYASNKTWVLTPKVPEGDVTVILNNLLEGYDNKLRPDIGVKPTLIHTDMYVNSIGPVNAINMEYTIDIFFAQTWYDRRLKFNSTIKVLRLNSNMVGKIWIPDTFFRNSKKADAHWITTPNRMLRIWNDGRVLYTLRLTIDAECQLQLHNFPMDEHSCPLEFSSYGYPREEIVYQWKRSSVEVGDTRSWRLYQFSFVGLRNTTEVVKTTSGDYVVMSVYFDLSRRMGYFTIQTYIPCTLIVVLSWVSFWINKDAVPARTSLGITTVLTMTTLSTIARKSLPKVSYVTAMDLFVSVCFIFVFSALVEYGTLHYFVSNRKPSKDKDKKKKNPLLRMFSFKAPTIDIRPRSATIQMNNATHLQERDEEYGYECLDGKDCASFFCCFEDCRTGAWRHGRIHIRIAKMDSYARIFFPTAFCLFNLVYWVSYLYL

[5] = Metabolic stability in human liver microsomes assessed as intrinsic clearance at 1 uM preincubated for 10 mins followed by NADPH addition by LC-MS analysis; type: ADME, Microsome; settings: read-out: CLH
[6] = Metabolic stability in Sprague-Dawley rat liver microsomes assessed as compound remaining at 1 uM preincubated for 10 mins followed by NADPH addition by LC-MS analysis; type: ADME, Microsome; settings: read-out: Stability
[7] = Metabolic stability in human liver microsomes assessed as compound remaining at 1 uM preincubated for 10 mins followed by NADPH addition by LC-MS analysis; type: ADME, Microsome; settings: read-out: Stability
[8] = Metabolic stability in Sprague-Dawley rat liver microsomes assessed as intrinsic clearance at 1 uM preincubated for 10 mins followed by NADPH addition by LC-MS analysis; type: ADME, Microsome; settings: read-out: CLH
[9] = molecular target: GABA-A receptor; anion channel; assay: Inhibition of [35S]TBPS binding to GABA-A receptor in Sprague-Dawley rat brain cortical membrane incubated for 90 mins by liquid scintillation spectrometry; type: cell membranes, Cortex

Row | SMILES | Emax [1] [%] | Emax [2] [%] | EC50 [3] [nM] | EC50 [4] [nM] | CLint scaled at 1 µM [5] [mL/min/kg] | remaining at 1 µM [6] [%] | remaining at 1 µM [7] [%] | CLint scaled at 1 µM [8] [mL/min/kg] | IC50 [9] [nM]
1 | C[C@@]1(O)CC[C@H]2[C@H](CC[C@@H]3[C@@H]2CC[C@]2(C)[C@@H](C(=O)Cn4cnn(-c5cc(F)ccn5)c4=O)CC[C@@H]32)C1 | 446 | 720 | 68 | 340 | – | – | – | – | –
2 | C[C@@]1(O)CC[C@H]2[C@H](CC[C@@H]3[C@@H]2CC[C@]2(C)[C@@H](C(=O)Cn4cnn(-c5cc(F)cc(F)c5)c4=O)CC[C@@H]32)C1 | 1040 | 441 | 35 | 154 | – | – | – | – | –
3 | CC(C)(C)n1ncn(CC(=O)[C@H]2CC[C@H]3[C@@H]4CC[C@@H]5C[C@](C)(O)CC[C@@H]5[C@H]4CC[C@]23C)c1=O | 806 | 749 | 268 | 310 | – | – | – | – | –
4 | C[C@@]1(O)CC[C@H]2[C@H](CC[C@@H]3[C@@H]2CC[C@]2(C)[C@@H](C(=O)Cn4cnn(-c5cncc(F)c5)c4=O)CC[C@@H]32)C1 | 618 | 601 | 150 | 145 | – | – | – | – | –
5 | C[C@@]1(O)CC[C@H]2[C@H](CC[C@@H]3[C@@H]2CC[C@]2(C)[C@@H](C(=O)Cn4cnn(-c5cccc(N)c5)c4=O)CC[C@@H]32)C1 | 786 | 1070 | 213 | 349 | – | – | – | – | –
6 | C[C@@]1(O)CC[C@H]2[C@H](CC[C@@H]3[C@@H]2CC[C@]2(C)[C@@H](C(=O)Cn4cnn(-c5cccc(F)n5)c4=O)CC[C@@H]32)C1 | 724 | 966 | 360 | 368 | – | – | – | – | –
7 | C[C@@]1(O)CC[C@H]2[C@H](CC[C@@H]3[C@@H]2CC[C@]2(C)[C@@H](C(=O)Cn4cnn(-c5ccc(F)cc5)c4=O)CC[C@@H]32)C1 | 390 | 410 | 170 | 220 | – | – | – | – | –
8 | C[C@@]1(O)CC[C@H]2[C@H](CC[C@@H]3[C@@H]2CC[C@]2(C)[C@@H](C(=O)Cn4cnn(-c5cccc(F)c5F)c4=O)CC[C@@H]32)C1 | 445 | 526 | 42 | 126 | – | – | – | – | –
9 | C[C@@]1(O)CC[C@H]2[C@H](CC[C@@H]3[C@@H]2CC[C@]2(C)[C@@H](C(=O)Cn4cnn(-c5ccc6c(c5)OCO6)c4=O)CC[C@@H]32)C1 | 387 | 1200 | 266 | 139 | – | – | – | – | –
10 | C[C@@]1(O)CC[C@H]2[C@H](CC[C@@H]3[C@@H]2CC[C@]2(C)[C@@H](C(=O)Cn4cnn(C5CCCCC5)c4=O)CC[C@@H]32)C1 | 873 | 685 | 237 | 585 | – | – | – | – | –
11 | C[C@@]1(O)CC[C@H]2[C@H](CC[C@@H]3[C@@H]2CC[C@]2(C)[C@@H](C(=O)Cn4cnn(CC(F)(F)F)c4=O)CC[C@@H]32)C1 | 378 | 1280 | 1240 | 548 | – | – | – | – | –
12 | C[C@@]1(O)CC[C@H]2[C@H](CC[C@@H]3[C@@H]2CC[C@]2(C)[C@@H](C(=O)Cn4cnn(-c5cccc(OC(F)(F)F)c5)c4=O)CC[C@@H]32)C1 | 629 | 1580 | 41 | 182 | – | – | – | – | –
13 | C[C@@]1(O)CC[C@H]2[C@H](CC[C@@H]3[C@@H]2CC[C@]2(C)[C@@H](C(=O)Cn4cnn(-c5nccs5)c4=O)CC[C@@H]32)C1 | 763 | 633 | 126 | 330 | – | – | – | – | –
14 | COc1cccc(-n2ncn(CC(=O)[C@H]3CC[C@H]4[C@@H]5CC[C@@H]6C[C@](C)(O)CC[C@@H]6[C@H]5CC[C@]34C)c2=O)c1 | 410 | 570 | 21 | 26 | 24 | 14.2 | 43.5 | 176 | –
15 | C[C@@]1(O)CC[C@H]2[C@H](CC[C@@H]3[C@@H]2CC[C@]2(C)[C@@H](C(=O)Cn4cnn(-c5ccccc5)c4=O)CC[C@@H]32)C1 | 430 | 430 | 29 | 90 | – | – | – | – | –
16 | Cn1ncn(CC(=O)[C@H]2CC[C@H]3[C@@H]4CC[C@@H]5C[C@](C)(O)CC[C@@H]5[C@H]4CC[C@]23C)c1=O | 242 | 497 | 305 | 444 | – | – | – | – | –
17 | C[C@@]1(O)CC[C@H]2[C@H](CC[C@@H]3[C@@H]2CC[C@]2(C)[C@@H](C(=O)Cn4cnn(-c5ccc(F)cc5F)c4=O)CC[C@@H]32)C1 | 692 | 542 | 89 | 784 | – | – | – | – | –
18 | C[C@@]1(O)CC[C@H]2[C@H](CC[C@@H]3[C@@H]2CC[C@]2(C)[C@@H](C(=O)Cn4ncn(-c5cccc(F)c5)c4=O)CC[C@@H]32)C1 | 1260 | 334 | 112 | 371 | – | – | – | – | 1
19 | C[C@@]1(O)CC[C@H]2[C@H](CC[C@@H]3[C@@H]2CC[C@]2(C)[C@@H](C(=O)Cn4ccn(-c5cccc(F)c5)c4=O)CC[C@@H]32)C1 | 594 | 552 | 139 | 241 | – | – | – | – | 1
20 | C[C@@]1(O)CC[C@H]2[C@H](CC[C@@H]3[C@@H]2CC[C@]2(C)[C@@H](C(=O)Cn4cnn(C5CCCC5)c4=O)CC[C@@H]32)C1 | 691 | 830 | 203 | 192 | – | – | – | – | –
21 | C[C@@]1(O)CC[C@H]2[C@H](CC[C@@H]3[C@@H]2CC[C@]2(C)[C@@H](C(=O)Cn4cnn(-c5cc(F)ccc5F)c4=O)CC[C@@H]32)C1 | 347 | 743 | 79 | 340 | – | – | – | – | –
22 | C[C@@]1(O)CC[C@H]2[C@H](CC[C@@H]3[C@@H]2CC[C@]2(C)[C@@H](C(=O)Cn4cnn(CC5CC5)c4=O)CC[C@@H]32)C1 | 727 | 931 | 122 | 163 | 38 | 5.9 | 26.4 | 280 | –
23 | C[C@@]1(O)CC[C@H]2[C@H](CC[C@@H]3[C@@H]2CC[C@]2(C)[C@@H](C(=O)Cn4cnn(-c5ccccc5F)c4=O)CC[C@@H]32)C1 | 710 | 541 | 107 | 171 | – | – | – | – | –
24 | C[C@@]1(O)CC[C@H]2[C@H](CC[C@@H]3[C@@H]2CC[C@]2(C)[C@@H](C(=O)Cn4cnn(-c5cccc(C#N)c5)c4=O)CC[C@@H]32)C1 | 1050 | 683 | 50 | 112 | – | – | – | – | –
25 | CCn1ncn(CC(=O)[C@H]2CC[C@H]3[C@@H]4CC[C@@H]5C[C@](C)(O)CC[C@@H]5[C@H]4CC[C@]23C)c1=O | 632 | 526 | 270 | 190 | – | – | – | – | –
